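Assay format: 96-well plates, 48-hour exposure. Definition used: TGI = concentration required for complete inhibition of growth.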
What was measured:
Experiment in all cases: NCI tumour cell line growth inhibition, 48 h
UACC-62 melanoma = tested on: UACC-62 melanoma
EKVX NSCLC = tested on: EKVX NSCLC
RPMI-8226 leukemia = tested on: RPMI-8226 leukemia
SF-295 CNS = tested on: SF-295 CNS
HL-60(TB) leukemia = tested on: HL-60(TB) leukemia
SNB-19 CNS = tested on: SNB-19 CNS
TK-10 renal = tested on: TK-10 renal
OVCAR-5 ovarian = tested on: OVCAR-5 ovarian
A549 NSCLC = tested on: A549 NSCLC
IGROV1 ovarian = tested on: IGROV1 ovarian
HT29 colon = tested on: HT29 colon
OVCAR-3 ovarian = tested on: OVCAR-3 ovarian
OVCAR-4 ovarian = tested on: OVCAR-4 ovarian
COLO 205 colon = tested on: COLO 205 colon
MDA-N = tested on: MDA-N
MDA-MB-231 breast = tested on: MDA-MB-231 breast
OVCAR-8 ovarian = tested on: OVCAR-8 ovarian
NCI/ADR-RES ovarian = tested on: NCI/ADR-RES ovarian
UACC-257 melanoma = tested on: UACC-257 melanoma
SK-OV-3 ovarian = tested on: SK-OV-3 ovarian
SW-620 colon = tested on: SW-620 colon
U251 CNS = tested on: U251 CNS
SN12C renal = tested on: SN12C renal
HS 578T breast = tested on: HS 578T breast
HCT-116 colon = tested on: HCT-116 colon
UO-31 renal = tested on: UO-31 renal
M14 melanoma = tested on: M14 melanoma
MDA-MB-435 = tested on: MDA-MB-435
NCI-H226 lung = tested on: NCI-H226 lung
DU-145 prostate = tested on: DU-145 prostate
BT-549 breast = tested on: BT-549 breast
HCC-2998 colon = tested on: HCC-2998 colon
SK-MEL-28 melanoma = tested on: SK-MEL-28 melanoma
SK-MEL-5 melanoma = tested on: SK-MEL-5 melanoma
CAKI-1 renal = tested on: CAKI-1 renal
MOLT-4 leukemia = tested on: MOLT-4 leukemia
SR leukemia = tested on: SR leukemia
786-0 renal = tested on: 786-0 renal
NCI-H522 lung = tested on: NCI-H522 lung
PC-3 prostate = tested on: PC-3 prostate
MCF7 breast = tested on: MCF7 breast
HOP-92 NSCLC = tested on: HOP-92 NSCLC
HCT-15 colon = tested on: HCT-15 colon
SK-MEL-2 melanoma = tested on: SK-MEL-2 melanoma
LOX IMVI melanoma = tested on: LOX IMVI melanoma
A498 renal = tested on: A498 renal
SF-268 CNS = tested on: SF-268 CNS
MALME-3M melanoma = tested on: MALME-3M melanoma
K-562 leukemia = tested on: K-562 leukemia
ACHN renal = tested on: ACHN renal
KM12 colon = tested on: KM12 colon
NCI-H23 lung = tested on: NCI-H23 lung
CCRF-CEM leukemia = tested on: CCRF-CEM leukemia
NCI-H460 lung = tested on: NCI-H460 lung
SF-539 CNS = tested on: SF-539 CNS

Measured: TGI

COc1ccc(OC)c(N2C(=O)CSC2c2cc(OC)c(OC)c(OC)c2)c1 (stereo not given)
86 µM: MDA-MB-435
> 100 µM: all other assays above
